Assay [1] deals with Nf1−/− astrocytes. The assay is described as follows: Cell cycle analysis by flow cytometry, Nf1−/− astrocytes. In kind it is cell-based, mouse. Particulars: CXCL12 0.1 μg/ml. As to the method:
(§1) Cell Cycle Analysis. Ethanol fixed cells were washed in PBS and resuspended in PI staining solution containing 0.1% Triton-X-100, 0.2 mg/ml RNase A, and 20 ug/ml Propidium Iodide in PBS. The cells were incubated for 15 minutes at 37° C., in the dark. Flow Cytometry was performed on a FACSCalibur system (Becton Dickinson, San Jose, Calif.) Data were analyzed using CellQuest software (Becton Dickinson, San Jose, Calif.). Aggregates and debris were excluded from the analysis.
(§2) The basis for the in vitro growth effects of CXCL12 was further evaluated by cell cycle analysis of asynchronously growing cultures of Nf1+/+ and Nf1−/− astrocytes in the presence and absence of CXCL12. In agreement with measurements of cell number, 15% more Nf1−/− astrocytes were in the S+G2M fraction of the cell cycle compared to Nf1+/+ astrocytes (P<0.005, data not shown). This decrease in Nf1+/+ cell number in response to CXCL12 was the result of both a 6% decrease in proliferation (S+G2-M) and a 38+/−8% increase in apoptosis (sub-G0). The increase in Nf1−/− cell number was the result of a 27+/−12% decline in apoptosis alone (FIG. 9C).

In assay [2] the test system is Nf1−/− astrocytes. The assay is described as follows: Cell number by trypan blue exclusion, Nf1−/− astrocytes. In kind it is cell-based, mouse. Particulars: CXCL12 0.1 ug/ml (≈10 nM), 24 hours, vs untreated controls. The protocol: Culture and treatment of primary astrocytes. Primary cultures of astrocytes were prepared from post-natal day two Nf1^flox/flox mice as previously described (134) and in accordance with established Animal Studies Protocols at Washington University School of Medicine. Cultures were infected with adenovirus containing either Cre recombinase (Nf1−/−) or LacZ (Nf1+/+). Primary cultures of astrocytes were grown under standard adherent conditions in serum free media (DMEM/F12 or Neurobasal (Gibco-BRL)) in the presence or absence of 0.1 μg/ml CXCL12 (Peprotech) and 10 μM Forskolin for 24 hours, as indicated. Cell number was determined after 24 hours by trypan blue exclusion and the growth effects of CXCL12 were derived as follows: ((cell number in the presence of CXCL12—cell number cell in the absence of CXCL12)/cell number in the absence of CXCL12)×100.)
To determine the biological significance of CXCR4 activation to NF1 glioma biology, we next sought to evaluate the regulation of CXCL12 growth effects by neurofibromin in astrocytes. While the true cell of origin of astrocytomas remains unknown, we utilized primary cultures of cortical astrocytes as a model of a normal counterpart to astrocytoma cells. Astrocytes were derived from Nf1^flox/flox mice and rendered Nf1+/+ or Nf1−/− by infection with adenovirus encoding LacZ or Cre recombinase, respectively.

In another assay the target is T1, CXCR4 (Mus musculus, UniProt P70658).
T1 construct: endogenous in cells; host or cells: primary mouse astrocytes (Nf1 flox/flox, infected with Ad-LacZ or Ad-Cre)
T1 sequence (P70658 whole entry): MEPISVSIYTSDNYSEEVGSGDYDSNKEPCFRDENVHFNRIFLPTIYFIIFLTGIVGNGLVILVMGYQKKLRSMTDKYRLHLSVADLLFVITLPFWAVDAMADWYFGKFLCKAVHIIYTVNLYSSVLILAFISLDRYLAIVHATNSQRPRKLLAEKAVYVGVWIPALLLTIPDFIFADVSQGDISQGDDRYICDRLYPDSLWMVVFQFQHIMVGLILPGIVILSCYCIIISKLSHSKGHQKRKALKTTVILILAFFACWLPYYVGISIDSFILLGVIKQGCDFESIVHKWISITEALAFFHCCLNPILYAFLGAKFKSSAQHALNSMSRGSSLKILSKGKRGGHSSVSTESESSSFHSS
Kind of assay: CXCL12-induced CXCR4 phosphorylation (pCXCR4 western blot), Nf1−/− astrocytes. The format is cell-based. Particulars: CXCL12 0.1 μg/ml, at 5 minutes. As to the method: Western Blot Analysis. Whole-cell extracts were obtained by lysing cells with lysis buffer (20 mM Tris pH 7.4, 137 mM NaCl, 10% Glycerol and 1% Triton-X-100) supplemented with phosphatase inhibitor cocktail set II (Calbiochem, La Jolla, Calif.), PMSF (1 mM), leupeptin, (0.005 mg/ml) and aprotinin (0.005 mg/ml). The proteins were resolved with 10% Bis-Tris gels (Invitrogen) and transferred onto the nitrocellulose membrane Hybond ECL (Amersham, Piscataway, N.J.) according to standard protocols. Membranes were incubated with polyclonal antibodies CXCR4 (1:500), pErk½ (1:1200), pan Erk½ (1:150), pAkt (1:500), pan Akt (1:1000), pGRK2 (1:250), and pCXCR4 (1:200) overnight at 4° C. This was followed by incubation with horseradish peroxidase-conjugated secondary antibody (1:15,000; Bio-Rad). Peroxide activity was detected using the enhanced chemiluminescence Supersignal West Dura system (Pierce, Rockford, Ill.) Mouse anti-actin antibody was used as a loading control. Quantitation of western blots was performed by densitometry using Image J software from the NIH.
Among the primary mechanisms for controlling GPCR effects on cAMP production is receptor desensitization (140). This process is initiated when ligand occupied GPCR (e.g., CXCR4) is phosphorylated by G protein receptor kinase (GRK). […]
In general terms: A western blot detects proteins with antibodies after separation by electrophoresis.

A further assay concerns Nf1+/+ astrocytes. The assay is described as follows: Cell cycle analysis by flow cytometry, Nf1+/+ astrocytes. To be noted: CXCL12 0.1 μg/ml. The format is cell-based, mouse. As to the method:
as §1, §2
For orientation: In flow cytometry, cells or beads pass a laser one at a time.

In another assay the test system is GPCs. The assay is described as follows: Cell number by trypan blue exclusion, primary GPCs. To be noted: CXCL12 1 μg/ml, 24 hours. In kind it is cell-based, mouse. The protocol: Primary granule neuron cultures. Primary cultures of purified GPCs were prepared from 6 day-old BALB/C mice as described (58). Cerebella were dissected and meninges were removed. After incubation with 0.1% trypsin (Sigma) in HBSS with 125 units/ml Dnase (Sigma), 0.5 mM EDTA for 20 minutes at 37° C., cells were pelleted and washed three times with HBSS. The final cell suspension was passed through a […] nylon mesh cell strainer (Falcon, Franklin Lakes, Mich.). Cells were diluted to 2×10^6 cells/ml in DMEM/F12 (Gibco BRL, Gaithersburg, Md.) supplemented with N2 (Gibco BRL), 20 mM KCl, and 36 mM glucose.
Growth factor and drug treatment. Following serum-starvation for 24 hours, astrocytes, granule cells, U87 cells and Daoy cells, were treated with 1 μg/ml CXCL12 (PeproTech), […] AMD3465 (kind gift from Simon Fricker, AnorMED, Langley, BC, Canada) (200 μM Rolipram (Sigma), or 10 μM Forskolin (Sigma) as indicated.

Turning to “CXCL12: chemokine ligand of CXCR4 (Peprotech)”, the “decline in apoptosis (sub-G0)” value in the assay on Nf1−/− astrocytes [1] was 27+/−12%. The “increase in cell number” value in the assay with Nf1−/− astrocytes [2] is ~14+/−2%. Besides, the “decrease in pCXCR4” value with CXCR4 is on record as 0.56+/−0.14 fold. Moreover, in the assay with Nf1+/+ astrocytes, the “decrease in proliferation (S+G2-M)” value is reported as 6% and the “increase in apoptosis (sub-G0)” value is 38+/−8%. Also, in the assay on GPCs, the “effect on cell number” value is listed as “no effect”.

For the origin of these results see patent US7892767B2, “Phosphospecific chemokine receptor antibodies” (Washington University in St. Louis, priority 2005, dated 2011).
